We go through 70 compounds from the SangsterLogP compilation.

A short description of series [1]: method code SF-AS, from DOI: 10.1021/jf60167a006.
Series [2] is described as follows: method code SF, from DOI: 10.1016/s0960-894x(01)80459-5.
Series [3] can be described thus: method code SF-AS, from DOI: 10.1002/jps.2600630206, PMID: 4204981.
Series [4] can be described thus: method code SF-AS, from DOI: 10.1021/acs.jmedchem.5b01455, PMID: 26523333. The following applies: pH 7.4.
Series [5] is described as follows: method code SF-GLC, from DOI: 10.1007/s002679900238, PMID: 10486045.
Assay in series [6]: not given
The source holds these as a separate data set.

Series [7] can be described thus: method code SF-AS, from DOI: 10.1016/s0021-9673(00)82600-x.
Assay in series [8]: not given
This is another data set of the same source.

A short description of series [9]: from Sparatore, F.; Grieco, C.; Silipo, C.; Vittoria, A. (1979). Use of regression analysis to correlate auxin activity with chemical physical and structural properties of benzotriazole derivatives. III. …. Particulars: pH 5.6.
Assay in series [10]: not given
This is another data set of the same source.

Assay in series [11]: not given
This is another data set of the same source.

Assay in series [12]: not given
The source holds these as a separate data set.

Assay in series [13]: not given
The source holds these as a separate data set.

Assay in series [14]: not given
The source holds these as a separate data set.

The nature of series [15]: method code SF-HPLC, from DOI: 10.1248/cpb.37.2861, PMID: 2611948. Particulars: pH 4.0.
Assay in series [16]: not given
The source holds these as a separate data set.

For series [17] the following is noted: pH 7.4.
A short description of series [18]: method code SF-AS, from DOI: 10.1016/j.ejps.2010.09.003, PMID: 20854904. Particulars: pH 10.0.
A short description of series [19]: method code SF-GLC, from DOI: 10.1007/bf00224496.
Assay in series [20]: not given
This is another data set of the same source.

The nature of series [21]: method code SF-AS, from Jha, T.; Debnath, A.; Mazumdar, A.; Sengupta, C.; De, A. (1986). Hansch analysis of antineoplastic agents, 5-N-substituted-2-p-substituted benzenesulfonyl-L-glutamines. Ind. J. Chem., Sect. B, ….
Assay in series [22]: not given
This is another data set of the same source.

Assay in series [23]: not given
This is another data set of the same source.

Assay in series [24]: not given
The source holds these as a separate data set.

Series [25] can be described thus: method code SF-AS, from DOI: 10.1021/bi00405a042.
Series [26] is described as follows: method code SF-RC, from DOI: 10.1016/j.nucmedbio.2008.01.001, PMID: 18355684. The following applies: pH 7.4.
Series [27] in a line: method code SF-AS, from DOI: 10.1021/jm991080o, PMID: 10579844. The following applies: pH 7.4.
Series [28] is described as follows: method code SF-AS, from DOI: 10.1016/0378-5173(84)90231-x.
Series [29] is described as follows: method code SF, from DOI: 10.1016/j.nucmedbio.2004.02.004, PMID: 15219281.
Assay in series [30]: not given
This is another data set of the same source.

Series [31] is described as follows: method code SF-ESR, from DOI: 10.1515/znc-1987-7-832, PMID: 2961152.
Series [32] in a line: method code SF-AS, from DOI: 10.1515/znc-1987-7-832, PMID: 2961152.
Assay in series [33]: not given
The source holds these as a separate data set.

A short description of series [34]: method code SF-AS, from DOI: 10.1039/ft9959100995.

For the compound `CCOP(=O)(OCC)Oc1c(Cl)cc(SC)cc1Cl`, in [1], the lipophilicity (logP) was 3.72.
`CC(C)=CCCC(C)CCO` (stereo not given): the logP came out at 3.38.
As for `Nc1ncnc2c1ncn2[C@@H]1O[C@H](CO)C[C@H]1O`, the logP in [2] is -0.65.
Compound `CC(C)=CCC/C(C)=C/C=O` registered a logP of 3.76.
For the compound `CCC(C)(Oc1ccc(Cl)cc1)C(=O)O` (stereo not given), the log partition coefficient (logP) in [3] turned out to be 2.9.
For `FCC(F)Cc1c[nH]c2ccccc12` (stereo not given), the logD in series [4] was 2.54.
As for `CC1=CCC(C(C)C)=CC1`, the logP in series [5] was 4.5.
Regarding `CCC(O)(C(N)=O)c1ccccc1` (stereo not given), in [6], the logP was determined as 1.2.
For `CN(C)c1cnn(-c2ccccc2)c(=O)c1Cl`, in series [7], the logP was 1.55.
Take `CC(C)N1CCOC(c2cccc(Cl)c2)C1` (stereo not given): the logP in series [8] was 3.27.
On to `OCCCCCCn1nc2ccccc2n1`, for which the logD in series [9] is 2.26.
In series [10], `O=Cc1ccc2cccccc1-2` gave a logP of 2.64.
`CC(F)(F)Cc1c[nH]c2ccccc12`: in series [4], the pH-dependent lipophilicity (logD) amounted to 3.3.
In turn, `CNC(=O)Oc1cc(C)c(N(C)C)c(C)c1` had a logP in series [11] of 2.56.
`Clc1cc2c(Cl)c(Cl)c(Cl)c(Cl)c2cc1Cl` gave a logP in series [12] of 6.77.
`CCOP(=O)(OCC)Oc1ccccc1` had a logP in [1] of 1.64.
In series [13], `Clc1cc2c(c(Cl)c1Cl)Oc1c(Cl)c(Cl)c(Cl)c(Cl)c1O2` displayed a logP of 8.2.
`Clc1cc2ccccc2cc1Cl` registered a logP in series [14] of 4.71.
The compound `O=c1[nH]c(=O)n(Cc2ccccc2)cc1F` gave a log distribution coefficient (logD) in series [15] of 0.89.
`CC[C@@H](CO)NCCN[C@@H](CC)CO` came in with a logP in [16] of -0.4.
In series [17], `CC(=O)Oc1ccccc1C(=O)OCCN(C)C(C)=O` registered a log distribution coefficient (logD) of 1.46.
As for `CC1(C)C2CCC1(C)C(OCCO)C2` (stereo not given), in series [5], the logP came out at 3.32.
Take `O=C(CCN1CCOCC1)c1ccccc1`: the logD in [18] amounted to 1.24.
The compound `C=C(C)C1CC=C(C)CC1` (stereo not given) returned a logP in series [19] of 4.4.
With `CCOP(=S)(OCC)SCSc1ccc(Cl)cc1`, the log partition coefficient (logP) in series [11] was 4.53.
The compound `Clc1cc(Cl)c(-c2cc(Cl)c(Cl)c(Cl)c2Cl)cc1Cl` registered a log partition coefficient (logP) in series [20] of 7.15.
`Clc1cc2c(Cl)ccc(Cl)c2c(Cl)c1Cl` returned a logP in series [12] of 6.46.
As for `CCCCCCCCCCCCCCCCOP(=O)(OCC1CC(O)C(n2cnc3c(N)ncnc32)O1)OCC1OC(n2cc(C)c(=O)[nH]c2=O)CC1N=[N+]=[N-]` (stereo not given), the logP in series [2] amounted to 3.26.
In series [16], `Cc1nccn1CC1CCc2c(c3ccccc3n2C)C1=O` (stereo not given) yielded a logP of 1.92.
Turning to `NC(=O)CCC(NS(=O)(=O)c1ccccc1)C(=O)O` (stereo not given), the logP in series [21] came to 0.58.
Compound `c1ccc2c(c1)ccc1ccccc12` returned a lipophilicity (logP) in series [20] of 4.69.
The compound `O=C(CCCO[N+](=O)[O-])Oc1ccccc1C(=O)O` displayed a logP in series [22] of 1.95.
`Clc1cccc2cccc(Cl)c12` returned a logP in [14] of 4.41.
With `OC[C@@H]1C[C@@H](F)[C@H](n2cnc3c(Cl)ncnc32)O1`, the logP in series [23] amounted to 0.32.
`Cc1[nH]cnc1CSCCNC1=NC(=O)CN1` gave a logP in series [24] of -0.5.
Take `CNC(=O)CCc1c[nH]c2ccccc12`: in [25], the logP came to 1.23.
`CN1CCC=C(c2nsnc2SCCCF)C1` showed a logD in [26] of 2.4.
Consider `CC(=O)Oc1ccccc1C(=O)OCS(C)=O` (stereo not given), for which, in series [17], the logD turned out to be 0.11.
For `CCc1c(O)c(=O)ccn1CCOC(C)=O`, in [27], the logD is -0.24.
With `C=CC(=C)CCC=C(C)C`, in series [19], the logP worked out at 4.5.
In the case of `CC(C)(C)[N+]([O-])=Cc1ccc(F)cc1`, the log partition coefficient (logP) in series [28] came out at 1.42.
In [29], `O=c1[nH]c(=O)n([C@@H]2O[C@H](CO)[C@@H](O)[C@H]2F)cc1/C=C/I` yielded a logP of 1.21.
The compound `Clc1cc2oc3cc(Cl)c(Cl)c(Cl)c3c2cc1Cl` showed a logP in series [30] of 6.7.
Regarding `CC1(C)CC(NC(=O)N(CCCl)N=O)CC(C)(C)N1[O]`, in series [31], the logP is 1.6.
For the compound `OCCCCCn1nnc2ccccc21`, the pH-dependent lipophilicity (logD) in [9] was 1.51.
In the case of `CC1CCC(NC(=O)N(CCCl)N=O)CC1` (stereo not given), the log partition coefficient (logP) in series [32] was 3.25.
Turning to `CC(=O)c1ccc2cccccc1-2`, the log partition coefficient (logP) in [10] stood at 2.87.
For the compound `COc1ncnc2c1ncn2[C@@H]1O[C@H](CO)C[C@H]1F`, the logP in [23] worked out at 0.25.
With `Cc1cccc(C2CNCCO2)c1` (stereo not given), the logP in series [8] came to 1.52.
In series [15], `O=c1[nH]c(=O)n(Cc2ccc(Cl)cc2)cc1F` showed a logD of 1.64.
In series [26], `CN1CCC=C(c2nsnc2SCCC(F)(F)F)C1` came in with a logD of 2.9.
In series [22], `O=C(CCCCCO[N+](=O)[O-])Oc1ccccc1C(=O)O` gave a logP of 2.49.
In series [21], `CCCCNC(=O)CCC(NS(=O)(=O)c1ccc(C)cc1)C(=O)O` (stereo not given) registered a logP of 0.02.
As to `COc1cnn(-c2ccccc2)c(=O)c1Br`, the logP in series [7] was 1.42.
In the case of `CCC(O)(CC(N)=O)c1ccccc1` (stereo not given), in series [6], the logP worked out at 1.83.
As for `O=c1[nH]c(=O)n(C2CC(O)C(CO)O2)cc1/C=C/I` (stereo not given), the logP in series [29] was 1.1.
Turning to `CN(C)CCOC(=O)c1ccccc1`, in series [18], the logD was found to be 1.76.
The compound `CNC(=O)CCc1ccccc1` yielded a logP in [25] of 1.17.
`CCC1(CC)C(=O)NC(=O)N=C1OC(C)C`: the logP in series [33] was determined as 1.86.
`CCC(O)c1c(O)c(=O)cc(C)n1C` (stereo not given): in series [27], the logD is -0.13.
In series [34], `CC(=O)OCCOCn1cnc2cnc(N)nc21` showed a lipophilicity (logP) of -0.61.
In series [13], `Clc1cccc2c1Oc1ccccc1O2` registered a logP of 4.75.
For `CC(C)(C)[N+]([O-])=Cc1ccccc1`, the logP in series [28] turned out to be 1.22.
For the compound `O=C(O)C1CCc2ccccc2O1` (stereo not given), in series [3], the logP was found to be 1.9.
Compound `Clc1cc2oc3c(Cl)c(Cl)c(Cl)cc3c2cc1Cl` came in with a logP in series [30] of 6.31.
Turning to `CC(=O)Nc1ncc2ncn(COCCOC(C)=O)c2n1`, in series [34], the logP was -1.05.
Compound `CN(C(=O)N(CCCl)N=O)C1CC(C)(C)N(O)C(C)(C)C1` had a logP in [32] of 1.7.
In [24], `Cc1[nH]cnc1CSCCNc1cc(=O)cc[nH]1` registered a logP of 0.8.
Consider `CCC1(c2ccccc2)C(=O)NC(=O)N(C(C)C)C1=O` (stereo not given), for which the logP in series [33] stood at 2.58.
`CC1(C)CC(NC(=O)N(CCCl)N=O)C(C)(C)[N+]1(C)[O-]` (stereo not given) had a log partition coefficient (logP) in series [31] of 1.64.

As a reminder, the logP is the decadic logarithm of the partition coefficient of the neutral form, usually between octanol and water. The low end stands for lower lipophilicity, the high end for higher lipophilicity. Usually logD stands for lipophilicity at a set pH, counting ionised and neutral species. A low value points to lower lipophilicity.
